How the values were obtained:
[1] = solubility of glycerol monolaurate in lauryl lactate / EVA 40; format: physicochemical; details: for Wt % GML in solution: based on GML solubility of 350 mg/g
Description: The unexpected effects of the specific weight percentages of the components of the permeation enhancer mixture are believed to be due, in part, to the solubility of the monoglyceride in the lactic acid ester. It is known that monoglycerides by themselves are effective permeation enhancers. The enhancement occurs by the solubilization of the monoglyceride in the lipid layer of the skin. The solubilization of the monoglyceride in the lipid layer increases as a function of lactic acid ester concentration. […] Thus, the amount of GML dissolved, ie, free GML, is dictated by and proportional to the lauryl lactate loading in the polymer.

[2] = aqueous solution 25 mg/mL, 0.05 M isotonic phosphate buffer, 20 μm polybutadiene film, cited from earlier work
[3] = format: in vivo, human; details: after the initial application; transdermal with permeation enhancing mixture
Protocol: Therapeutic blood levels can be achieved within approximately 6-10 hours after the initial application, and blood concentrations are maintained with subsequent system applications. The range of desired and achievable system permeation rates of oxybutynin, arriving through the skin from a limited area, is 1-20 mg over a period of 24 hours. The system application is easily adapted for shorter or longer duration treatments, but generally 72 hours is the duration for a single application.

[4] = in vitro permeation of oxybutynin through human epidermis at 35° C., EVA 40 systems on horizontal permeation cells (Examples 4-5); format: in vitro ADME; details: R- or S-oxybutynin versus racemate
Protocol: Oxybutynin, glycerol monolaurate and lauryl lactate were then added.
When EVA 40 was used the mixture was blended, cooled and calendered to a 5 mil thick film. This film was then laminated to an acrylic contact adhesive (MSP041991P, 3M) on one side and Medpar® backing (3M) on the opposite side. The laminate was then cut into 2.54 cm^2 circles using a stainless steel punch. Circular pieces of human-epidermis were mounted on horizontal permeation cells with the stratum corneum facing the donor compartment of the cell. The release liner of the system was then removed and the system was centered over the stratum corneum side of the epidermis.

CCCCCCCCCCCC(=O)OCC(O)CO (centres unmarked) [GML, glycerol monolaurate]
Wt % GML in solution ([1]; 12% lauryl lactate in EVA 40): 4.2% | Wt % GML in solution ([1]; 20% lauryl lactate in EVA 40): 7.0% | Wt % GML in solution ([1]; 27% lauryl lactate in EVA 40): 9.5% | Wt % GML in solution ([1]; 30% lauryl lactate in EVA 40): 10.5% | solubility in EVA 40 matrix ([1]; EVA 40 matrix): practically insoluble | solubility of glycerol monolaurate in lauryl lactate ([1]; solution stirred): 350 mg/g of solution

CCN(CC)CC#CCOC(=O)C(O)(c1ccccc1)C1CCCCC1 (centres unmarked) [Oxybutynin]
in vitro release rate (per area) [2]: ~10 μg/cm^2.hr | in vitro release rate (amount over 24 hours) ([2]; through a 49 cm^2 area): approximately 12 mg over 24 hours | time to therapeutic blood levels [3]: 6 to 10 h

CCN(CC)CC#CCOC(=O)[C@](O)(c1ccccc1)C1CCCCC1 [R-oxybutynin]
flux of enantiomer relative to racemate, in words [4]: approximately equivalent to that of the racemate

CCN(CC)CC#CCOC(=O)[C@@](O)(c1ccccc1)C1CCCCC1 [S-oxybutynin]
flux of enantiomer relative to racemate, in words [4]: approximately equivalent to that of the racemate

Source: patent US5900250A, “Monoglyceride/lactate ester permeation enhancer for oxybutnin” (ALZA Corporation, priority 1998, dated 1999)
